The values below come from patent US6060257A, “Tumor rejection antigens presented by HLA-B44 molecules, and uses thereof” (Ludwig Institute for Cancer Research, priority 1996, dated 2000).

The target in the assay is T1, HLA-B*4402 (Homo sapiens, UniProt P01889, A223V/A65T/A93T/A95T/D201E/D98Y/E176V/E187L/E204Q/E69K/G107R/H137Y/K202T/L105A/L119I/N104T/N87E/Q56L/Q94N/R106L/R155S/R180D/S101N/S121R/S35A/S48T/T118I/V36M/W191S/Y140D/Y91S).
T1 construct: expressed in transfected cells; host or cells: C1R cells (MHC class I negative, EBV-transformed lymphoblastoid)
Description: Competitive assay: inhibition of CTL 159/5 lysis of C1R-B*4402 cells sensitized with SEQ ID NO: 18. The class given is cell-based. The note with it: C1R-B44 cells (B*4402 and B*4403 transfectants).

In the case of “Gin Glu Glu Gly Pro Ser Thr Phe [SEQ ID NO: 20]”, the “inhibition of lysis of C1R-B44 cells (indicates binding to HLA-B44 molecules)” value is listed as “did inhibit lysis”.
